# Source: US20220089578A1, “COMPOUNDS AS GLP-1R AGONISTS” (Terns Pharmaceuticals, Inc., priority 2020, published 2022)
# Target: human GLP-1R (Homo sapiens, UniProt P43220)
# Assay: GLP-1R Cell Assay 2: CHO-K1_hGLP-1Rlow_clone10 cells, LANCE Ultra cAMP TR-FRET assay
# Format: cell-based
# Design: expressed in transfected cells
# Conditions: Table 3, percent activation relative to control GLP-1 peptide agonist
# Method: Stable cell lines expressing high and low GLP-1R surface expression were generated in CHO-K1 cells transfected (Fugene 6) with a puromycin selectable DNA plasmid encoding human GLP-1R receptor (accession number: NM_002062.5) under control of an EF1A promoter. Transfected cells were seeded into 24-well plates (9,000 cells/well) containing complete medium and incubated in a humidified incubator at 37° C. with 5% carbon dioxide. After overnight incubation, medium was replaced with complete medium supplemented with puromycin (6 μg/mL) and refreshed every 2-3 days to select for stably transfected cells. Individual pools of selected cells were expanded prior to analysis for responsiveness to GLP-1 control peptide using a TR-FRET assay to detect cAMP (LANCE Ultra cAMP Assay, Perkin Elmer). Briefly, cells were collected in Versene solution, plated in 384-well plates (1,000 cells/well) and combined with serially diluted GLP-1R control peptide (10 nL) using an acoustic dispenser (ECHO). Plates were incubated for 30 minutes at 25° C. prior to the addition of EU-cAMP tracer (5 μL) and Ulight-anti-cAMP (5 μL) reagents to each well, followed by 15 minutes incubation at 25° C. TR-FRET signal was detected using an EnVision Multimode Plate Reader (excitation=320 nm; emission=615 and 655 nm). Dose-response curves were used to generate EC50 values as a measure of responsiveness to the GLP-1R control peptide. Selected cell lines were monitored for responsiveness over multiple passages to ensure stability. […] Briefly, GLP-1R expression was analyzed by flow cytometry using a fluorescein-labeled Exendin-4 peptide fluorescent probe (FLEX). Cells were harvested in Versene solution and washed 3-times with PBS+0.5% BSA before incubation with FLEX reagent (10 μM) for 2 hours at room temperature. After incubation, cells were washed 3-times in PBS+0.5% BSA before final resuspension in PBS prior to analysis by flow cytometry to measure FLEX mean fluorescence intensity (MFI) as a measure of GLP-1R expression on the cell surface.
# For compound testing in the CHO-K1_hGLP-1Rlow_clonel0 cell lines, cells were seeded in 384-well plates (1,000 cells/well). Test compounds were serially diluted in DMSO (10-point, 3-fold dilution), added to wells using an ECHO dispenser (10 nL/well) and plates were centrifuged for 1 min and agitated for 2 min at room temperature prior to 30-minute incubation at 25° C. After incubation, Eu-cAMP (5 p,L) and Ulight-anti-cAMP (5 μL) reagents were added to each well, followed by centrifugation for 1 minute, agitation for 2 minutes at room temperature, and final incubation of the plates at 25° C. for 15 minutes. Plates were read using an EnVision microplate reader (excitation=320 nm; emission=615 and 655 nm). Dose-response curves were generated from duplicate wells based on percent activation calculated relative to a control GLP-1 peptide agonist that was run in parallel. EC50 values were determined by fitting percent activation as a function of compound concentration using the Hill equation (XLfit).
# Chain of human GLP-1R (P43220 24-463): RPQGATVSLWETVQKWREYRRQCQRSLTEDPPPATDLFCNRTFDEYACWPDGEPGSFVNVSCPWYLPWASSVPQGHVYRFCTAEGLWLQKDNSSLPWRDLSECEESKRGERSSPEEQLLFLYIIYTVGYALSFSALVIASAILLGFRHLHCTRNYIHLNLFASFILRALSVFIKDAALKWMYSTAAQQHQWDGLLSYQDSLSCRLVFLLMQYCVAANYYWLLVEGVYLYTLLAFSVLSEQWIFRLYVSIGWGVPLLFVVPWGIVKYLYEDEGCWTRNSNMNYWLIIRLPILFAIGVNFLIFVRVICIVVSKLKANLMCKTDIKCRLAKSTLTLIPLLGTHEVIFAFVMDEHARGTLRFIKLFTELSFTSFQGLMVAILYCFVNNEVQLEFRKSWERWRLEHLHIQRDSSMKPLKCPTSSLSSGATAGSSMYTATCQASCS
row,Compound,EC50
1,"N#Cc1cc(F)c2c(c1)CCN(c1cccc(C3CCN(Cc4nc5ccc(C(=O)O)cc5n4Cc4ncco4)CC3)n1)C2 [Compound 172, 2-((4-(6-(6-cyano-8-fluoro-3,4-dihydroisoquinolin-2(1H)-yl)pyridin-2-yl)piperidin-1-yl)methyl)-1-(oxazol-2-ylmethyl)-1H-benzo[d]imidazole-6-carboxylic acid]",119 nM
2,"CCn1cncc1Cn1c(CN2CC[C@]3(c4nccc(N5CCc6cc(C#N)cc(F)c6C5)n4)C[C@@H]3C2)nc2ccc(C(=O)O)cc21 (single isomer, unassigned) [Compound 186-P2]",> 10000 nM
3,"CCn1cncc1Cn1c(CN2CCC(c3cccnc3OCc3ccc(C(N)=O)cc3F)CC2)nc2ccc(C(=O)O)cc21 [Compound 170, 2-((4-(2-((4-carbamoyl-2-fluorobenzyl)oxy)pyridin-3-yl)piperidin-1-yl)methyl)-1-((1-ethyl-1H-imidazol-5-yl)methyl)-1H-benzo[d]imdiazole-6-carboxylic acid]",120 nM
4,"O=C(O)c1ccc2nc(CN3CCC(c4cccc(OCc5coc6c(C(F)(F)F)cccc56)n4)CC3)n(C[C@@H]3CCO3)c2c1 [Compound 175, (S)-1-(oxetan-2-ylmethyl)-2-((4-(6-((7-(trifluoromethyl)benzofuran-3-yl)methoxy)pyridin-2-yl)piperidin-1-yl)methyl)-1H-benzo[d]imidazole-6-carboxylic acid]",14.5 nM
5,"CCn1cncc1Cn1c(CN2CC[C@]3(c4nccc(OCc5ccc(C#N)cc5F)n4)C[C@@H]3C2)nc2ccc(C(=O)O)cc21 [Compound 185-P2, 2-(((1S,6R)-6-(4-((4-cyano-2-fluorobenzyl)oxy)pyrimidin-2-yl)-3-azabicyclo[4.1.0]heptan-3-yl)methyl)-1-((1-ethyl-1H-imidazol-5-yl)methyl)-1H-benzo[d]imidazole-6-carboxylic acid]",18.1 nM
6,CCn1cncc1Cn1c(CN2CC[C@@]3(c4nccc(N5CCc6cc(C#N)cc(F)c6C5)n4)C[C@H]3C2)nc2ccc(C(=O)O)cc21 [Compound 186-P1],646 nM
7,"O=C(O)c1ccc2nc(CN3CCC(c4cccc(OCc5coc6c(C(F)(F)F)cc(Br)cc56)n4)CC3)n(C[C@@H]3CCO3)c2c1 [Compound 182, (S)-2-((4-(6-((5-bromo-7-(trifluoromethyl)benzofuran-3-yl)methoxy)pyridin-2-yl)piperidin-1-yl)methyl)-1-(oxetan-2-ylmethyl)-1H-benzo[d]imidazole-6-carboxylic acid]",33.9 nM
8,"O=C(O)c1ccc2nc(CN3CCC(c4cccc(OCc5cc6cccc(C(F)(F)F)c6o5)n4)CC3)n(C[C@@H]3CCO3)c2c1 [Compound 177, (S)-1-(oxetan-2-ylmethyl)-2-((4-(6-((7-(trifluoromethyl)benzofuran-2-yl)methoxy)pyridin-2-yl)piperidin-1-yl)methyl)-1H-benzo[d]imidazole-6-carboxylic acid]",6.73 nM
9,"CCn1ccnc1Cn1c(CN2CCC(c3cccc(N4CCc5cc(C#N)cc(F)c5C4)n3)CC2)nc2ccc(C(=O)O)cc21 [Compound 171, 2-((4-(6-(6-cyano-8-fluoro-3,4-dihydroisoquinolin-2(1H)-yl)pyridin-2-yl)piperidin-1-yl)methyl)-1-((1-ethyl-1H-imidazol-2-yl)methyl)-1H-benzo[d]imidazole-6-carboxylic acid]",1410 nM
10,"O=C(O)c1ccc2nc(CN3CCC(c4cccc(OCc5nc(C(F)(F)F)cs5)n4)CC3)n(C[C@@H]3CCO3)c2c1 [Compound 179, (S)-1-(oxetan-2-ylmethyl)-2-((4-(6-((4-(trifluoromethyl)thiazol-2-yl)methoxy)pyridin-2-yl)piperidin-1-yl)methyl)-1H-benzo[d]imidazole-6-carboxylic acid]",36.6 nM
